Experimental data from patent publication US20030105138A1, “Method of treatment for decreasing mortality resulting from congestive heart failure” (Boehringer Mannheim Pharmaceuticals Corporation- SmithKline …, priority 1995, published 2003).

Assays:
patients with CHF [1] = conditions: treatment of CHF; cited from earlier work
patients with CHF [2] = assay: US Carvedilol Heart Failure Trials: mortality studies in CHF patients (multicenter, double-blind, placebo-controlled, intention-to-treat); format: in vivo, humans; set-up: All Cause Mortality / Risk Reduction, all-cause mortality / Mortality / Risk Reduction, mortality: concentration or dose not given beside the values; conditions: for Risk Reduction, mortality / Risk Reduction, all-cause mortality: versus placebo
Text: To determine if β-adrenergic blockade might inhibit the deleterious effects of the sympathetic nervous system on survival in heart failure (CHF), 1052 patients with CHF were prospectively enrolled into a multicenter trial program, in which patients were randomly assigned (double-blind) to 6-12 months' treatment with placebo (PBO) or carvedilol (CRV),. After a common screening period, patients with class II-IV CHF (see next paragraph for the definitions of the classification of CHF) and an ejection fraction ≦0.35 were assigned to one of four protocols based on performance on a 6-minute walk test. PBO or CRV was added to existing therapy with digoxin, diuretics and an ACE inhibitor. All-cause mortality was monitored by a prospectively constituted Data and Safety Monitoring Board (DSMB). After 25 months of enrollment, the DSMB recommended termination of the program because of a favorable effect of CRV on survival. By intention-to-treat, mortality was 8.2% in the PBO group but only 2.9% in the CRV group (P=0.0001, Cochran-Mantel-Haensel analysis). This represented a reduction in risk of death by CRV of 67% (95% CI: 42% to 81%). The treatment effect was similar in patients with class II and class III-IV symptoms. Mortality was reduced in class II patients from 5.9% to 1.9%, a 68% reduction (95% CI: 20% to 97%) [P=0.015,], and in class III-IV patients from 11.0% to 4.2%, a 67% reduction (95% CI: 30% to 84%), [P=0.004, log-rank]. Importantly, the effect of CRV was similar in ischemic heart disease (risk reduced by 67%, P=0.003) and in non-ischemic dilated cardiomyopathy (risk reduced by 67%, P=0.014). […] The treatment effect is seen across a broad range of severity and etiology of disease.
Patients on background therapy with diuretics, ACE inhibitors and/or digoxin were stratified on the basis of baseline submaximal exercise performance, into one of four trials: study 220, a dose response study in moderate (NYHA II-IV) CHF with exercise testing as a primary endpoint study 221, a dose titration study in moderate (NYHA II-IV) CHF with exercise testing as a primary endpoint study 239, a dose titration study in severe (NYHA III-IV) CHF with quality of life as a primary endpoint study 240, a dose titration study in mild (NYHA II-III) CHF with progression of CHF as a primary endpoint Sixty-four centers in the U.S. participated in the trial program. All sites conducted protocols 239 and 240, while 33 performed protocol 220 and 31 performed protocol 221.
Although each trial had its own individual objectives, the overall program objective defined prospectively was evaluation of all-cause mortality. Based upon a projected enrollment of 1100 patients, the program had 90% power to detect a 50% reduction in mortality (two-sided) between carvedilol and placebo, assuming a mortality rate in the placebo group of 12% over the duration of the trials (α=0.05).
Randomization was preceded by a screening and challenge period common to the four protocols The purpose of the screening period was to qualify patients for study entry, obtain reproducible baseline measurements, and stratify patients into the appropriate trial based on submaximal exercise testing. During the challenge period, patients received low-dose open-label carvedilol (6.25 mg b.i.d.) for two weeks. […] Patients tolerating low-dose carvedilol were then randomized to blinded medication (carvedilol or placebo) with the dose titrated over several weeks in the range of 6.25 to 50 mg b.i.d. (or equivalent level of placebo). The maintenance phase of each study ranged from six to 12 months, after which patients had the option of receiving open-label carvedilol in an extension study.
The analysis presented below corresponds to the data set on which the DSMB made the recommendation to terminate the trials. Included in this intent-to-treat analysis are all patients enrolled in the U.S. trials as of Jan. 20, 1995; 624 receiving carvedilol and 356 placebo.

[3] = Class III-IV CHF, listed as CRV

SMILES: CC(C)NCC(O)COc1ccc(COCCOC(C)C)cc1 (stereo not shown) [bisoprolol]
- Difference in mortality between drug-treated patients and placebo-treated patients (patients with CHF [1]): no difference in mortality

SMILES: COc1ccccc1OCCNCC(O)COc1cccc2[nH]c3ccccc3c12 (stereo not shown) [Carvedilol]
- Mortality (patients with CHF [2]; Class II CHF): (1.9%)
- Mortality (deaths/patients) (patients with CHF [2]; Class II CHF): 7/361
- Risk Reduction, mortality (patients with CHF [2]; Class II CHF): 68%
- Risk Reduction, mortality (patients with CHF [2]; Class II CHF, listed as CRV): 68%
- Mortality (patients with CHF [2]; Class II CHF, listed as CRV): 1.9%
- Mortality (patients with CHF [2]; Class III-IV CHF): (4.2%)
- Mortality (deaths/patients) (patients with CHF [2]; Class III-IV CHF): 11/263
- Risk Reduction, mortality (patients with CHF [2]; Class III-IV CHF): 66%
- Risk Reduction, mortality (patients with CHF [2]; [3]): 67%
- Mortality (patients with CHF [2]; [3]): 4.2%
- Mortality (patients with CHF [2]; Ischemic Etiology): (3.2%)
- Mortality (deaths/patients) (patients with CHF [2]; Ischemic Etiology): 10/311
- Risk Reduction, mortality (patients with CHF [2]; Ischemic Etiology): 67%
- Risk Reduction, mortality (patients with CHF [2]; Ischemic Etiology, listed as CRV): 67%
- Mortality (patients with CHF [2]; Non-Ischemic Etiology): (2.5%)
- Mortality (deaths/patients) (patients with CHF [2]; Non-Ischemic Etiology): 8/313
- Risk Reduction, mortality (patients with CHF [2]; Non-Ischemic Etiology): 67%
- Risk Reduction, mortality (patients with CHF [2]; Non-Ischemic Etiology, listed as CRV): 67%
- All Cause Mortality (patients with CHF [2]; all patients, intent-to-treat): (2.9%)
- All Cause Mortality (deaths/patients) (patients with CHF [2]; all patients, intent-to-treat, added to digoxin, diuretics and ACE inhibitor, 6.25 to 50 mg b.i.d.): 18/624
- All Cause Mortality (patients with CHF [2]; all patients, intent-to-treat, listed as CRV): 2.9%
- Risk Reduction, all-cause mortality (patients with CHF [2]; all patients): 67%
- Risk Reduction, all-cause mortality (patients with CHF [2]; all patients, listed as CRV): 67%

SMILES: COCCc1ccc(OCC(O)CNC(C)C)cc1 (stereo not shown) [metoprolol]
- Difference in mortality between drug-treated patients and placebo-treated patients (patients with CHF [1]): no difference in mortality
